This note sets out measurements from ChEMBL document CHEMBL3875174, “Further investigation of Paprotrain: Towards the conception of selective and multi-targeted CNS kinase inhibitors” (Eur J Med Chem, 2016).

A short description of data set [1]: Inhibition of porcine brain CK1 delta/epsilon using RRKHAAIGpSAYSITA as substrate incubated for 30 mins in presence of [gamma-33 P] ATP by liquid scintillation counting analysis. Set-up: species or system Sus scrofa.
The target of data set [2] is Cyclin-dependent kinase 5/CDK5 activator 1 (Homo sapiens, UniProt Q00535). The format is protein-complex assay.
Cyclin-dependent kinase 5/CDK5 activator 1, sequence (Q00535 whole entry): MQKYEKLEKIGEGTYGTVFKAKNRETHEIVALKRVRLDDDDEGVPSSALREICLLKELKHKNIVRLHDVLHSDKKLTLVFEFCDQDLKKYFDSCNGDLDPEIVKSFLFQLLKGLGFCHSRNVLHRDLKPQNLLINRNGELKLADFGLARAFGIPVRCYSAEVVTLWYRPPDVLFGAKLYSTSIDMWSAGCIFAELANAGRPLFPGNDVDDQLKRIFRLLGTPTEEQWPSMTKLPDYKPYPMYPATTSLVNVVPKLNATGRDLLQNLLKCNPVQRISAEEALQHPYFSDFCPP
Cyclin-dependent kinase 5/CDK5 activator 1, sequence (Q15078 whole entry, further chain): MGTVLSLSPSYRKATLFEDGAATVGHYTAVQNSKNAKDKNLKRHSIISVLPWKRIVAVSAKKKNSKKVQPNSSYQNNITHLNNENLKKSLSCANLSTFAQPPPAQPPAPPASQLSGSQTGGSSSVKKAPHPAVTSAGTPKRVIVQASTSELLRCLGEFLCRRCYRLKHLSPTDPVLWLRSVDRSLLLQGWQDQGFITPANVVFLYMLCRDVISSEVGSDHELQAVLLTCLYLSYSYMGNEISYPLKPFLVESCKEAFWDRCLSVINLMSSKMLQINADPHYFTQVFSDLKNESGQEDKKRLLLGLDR
The target of data set [3] is Glycogen synthase kinase-3 (Sus scrofa, UniProt B2LUN4+I6LNT8). Briefly: Inhibition of porcine brain GSK3alpha/beta using GS-1 as substrate incubated for 30 mins in presence of [gamma-33 P] ATP by liquid scintillation counting analysis.
Data set [4] concerns the target Dual specificity tyrosine-phosphorylation-regulated kinase 1A (Homo sapiens, UniProt Q13627). Briefly: Inhibition of GST-tagged human recombinant DYRK1A expressed in Escherichia coli using RS peptide as substrate incubated for 30 mins in presence of [gamma-33 P] ATP by liquid scintillation counting analysis.
Data set [5] deals with Dual specificity protein kinase CLK1 (Homo sapiens, UniProt P49759). Put plainly: Inhibition of GST-tagged human recombinant CLK1 expressed in Escherichia coli using RS peptide as substrate incubated for 30 mins in presence of [gamma-33 P] ATP by liquid scintillation counting analysis.
Dual specificity protein kinase CLK1, sequence (P49759 whole entry): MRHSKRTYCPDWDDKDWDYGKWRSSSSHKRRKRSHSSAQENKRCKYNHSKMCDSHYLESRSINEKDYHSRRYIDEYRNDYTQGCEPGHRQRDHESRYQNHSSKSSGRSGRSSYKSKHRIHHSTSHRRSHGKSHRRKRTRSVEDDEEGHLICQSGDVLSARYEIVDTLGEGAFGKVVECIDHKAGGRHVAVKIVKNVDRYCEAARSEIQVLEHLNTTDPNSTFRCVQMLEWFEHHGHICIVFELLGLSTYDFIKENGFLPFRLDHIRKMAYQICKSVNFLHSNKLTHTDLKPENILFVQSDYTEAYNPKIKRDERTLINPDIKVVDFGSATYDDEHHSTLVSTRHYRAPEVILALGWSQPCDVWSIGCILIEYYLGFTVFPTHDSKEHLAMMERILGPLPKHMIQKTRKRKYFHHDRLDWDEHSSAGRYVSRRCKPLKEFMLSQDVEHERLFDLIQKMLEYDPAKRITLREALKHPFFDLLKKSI
For data set [6], the target named is Dual specificity tyrosine-phosphorylation-regulated kinase 1B (Homo sapiens, UniProt Q9Y463). Briefly: Inhibition of GST-tagged human recombinant DYRK1B expressed in Escherichia coli using RS peptide as substrate incubated for 30 mins in presence of [gamma-33 P] ATP by liquid scintillation counting analysis.
Dual specificity tyrosine-phosphorylation-regulated kinase 1B, sequence (Q9Y463 whole entry): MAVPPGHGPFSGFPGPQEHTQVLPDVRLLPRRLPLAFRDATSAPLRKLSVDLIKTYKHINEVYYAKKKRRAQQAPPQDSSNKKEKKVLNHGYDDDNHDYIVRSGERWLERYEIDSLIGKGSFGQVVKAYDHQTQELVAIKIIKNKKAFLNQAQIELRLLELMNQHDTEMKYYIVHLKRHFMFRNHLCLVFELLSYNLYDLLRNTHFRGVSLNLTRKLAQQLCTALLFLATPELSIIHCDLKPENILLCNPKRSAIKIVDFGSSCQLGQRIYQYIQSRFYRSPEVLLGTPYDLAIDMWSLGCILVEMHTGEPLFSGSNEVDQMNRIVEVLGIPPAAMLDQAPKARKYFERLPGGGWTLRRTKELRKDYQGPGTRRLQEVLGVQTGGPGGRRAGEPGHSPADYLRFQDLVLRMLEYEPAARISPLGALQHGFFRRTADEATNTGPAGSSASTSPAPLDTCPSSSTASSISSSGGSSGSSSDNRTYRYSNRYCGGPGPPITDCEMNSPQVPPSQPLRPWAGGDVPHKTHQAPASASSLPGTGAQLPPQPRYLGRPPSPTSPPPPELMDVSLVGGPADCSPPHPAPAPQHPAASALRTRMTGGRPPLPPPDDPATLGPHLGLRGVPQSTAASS
The target of data set [7] is Dual specificity protein kinase CLK2 (Homo sapiens, UniProt P49760). Put plainly: Inhibition of GST-tagged human recombinant CLK2 expressed in Escherichia coli using RS peptide as substrate incubated for 30 mins in presence of [gamma-33 P] ATP by liquid scintillation counting analysis.
Dual specificity protein kinase CLK2, sequence (P49760 whole entry): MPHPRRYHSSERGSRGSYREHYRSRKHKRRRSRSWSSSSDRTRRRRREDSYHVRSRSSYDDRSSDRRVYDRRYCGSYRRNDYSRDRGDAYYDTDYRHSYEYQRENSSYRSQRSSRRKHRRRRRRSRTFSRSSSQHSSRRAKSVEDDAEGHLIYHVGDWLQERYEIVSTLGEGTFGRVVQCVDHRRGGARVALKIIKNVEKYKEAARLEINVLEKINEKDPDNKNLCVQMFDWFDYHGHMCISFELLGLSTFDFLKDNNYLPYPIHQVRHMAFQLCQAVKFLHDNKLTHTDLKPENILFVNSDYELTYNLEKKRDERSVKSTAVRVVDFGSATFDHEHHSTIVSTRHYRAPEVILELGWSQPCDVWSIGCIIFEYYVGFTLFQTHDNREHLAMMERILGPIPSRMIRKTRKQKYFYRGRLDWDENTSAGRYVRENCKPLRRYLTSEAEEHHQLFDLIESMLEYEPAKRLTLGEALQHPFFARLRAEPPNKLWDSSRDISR
Data set [8] concerns the target Dual specificity protein kinase CLK3 (Homo sapiens, UniProt P49761). Put plainly: Inhibition of GST-tagged human recombinant CLK3 expressed in Escherichia coli using RS peptide as substrate incubated for 30 mins in presence of [gamma-33 P] ATP by liquid scintillation counting analysis.
Data set [9] deals with Dual specificity protein kinase CLK4 (Homo sapiens, UniProt Q9HAZ1). Put plainly: Inhibition of GST-tagged human recombinant CLK4 expressed in Escherichia coli using RS peptide as substrate incubated for 30 mins in presence of [gamma-33 P] ATP by liquid scintillation counting analysis.
Dual specificity protein kinase CLK4, sequence (Q9HAZ1 whole entry): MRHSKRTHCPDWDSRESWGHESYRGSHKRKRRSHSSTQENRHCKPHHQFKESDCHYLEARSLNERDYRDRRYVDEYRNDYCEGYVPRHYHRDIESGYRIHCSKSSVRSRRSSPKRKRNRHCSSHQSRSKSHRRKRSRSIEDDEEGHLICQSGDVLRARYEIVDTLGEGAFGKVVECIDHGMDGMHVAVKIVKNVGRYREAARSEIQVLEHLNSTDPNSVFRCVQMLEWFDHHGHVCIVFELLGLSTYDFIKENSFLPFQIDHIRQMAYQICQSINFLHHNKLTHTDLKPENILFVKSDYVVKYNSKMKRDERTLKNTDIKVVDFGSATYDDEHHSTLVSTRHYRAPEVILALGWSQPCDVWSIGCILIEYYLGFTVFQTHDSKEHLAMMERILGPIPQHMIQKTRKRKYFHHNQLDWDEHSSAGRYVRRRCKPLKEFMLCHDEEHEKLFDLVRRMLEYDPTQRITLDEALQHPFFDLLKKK
The nature of data set [10]: Cytotoxicity against human KB cells assessed as growth inhibition at 1 uM after 72 hrs by MTS assay. As to conditions: for inhibition at 72 h, 1 µM: KB cells, read-out: GI; for growth inhibition (GI): kb, 72 h, 1 µM. Type of data set: toxicity, cell-based. A general note: Tetrazolium assays rely on reduction of a dye to a coloured formazan, in cell work by metabolically active cells.

Dual specificity protein kinase CLK3, sequence (P49761 whole entry): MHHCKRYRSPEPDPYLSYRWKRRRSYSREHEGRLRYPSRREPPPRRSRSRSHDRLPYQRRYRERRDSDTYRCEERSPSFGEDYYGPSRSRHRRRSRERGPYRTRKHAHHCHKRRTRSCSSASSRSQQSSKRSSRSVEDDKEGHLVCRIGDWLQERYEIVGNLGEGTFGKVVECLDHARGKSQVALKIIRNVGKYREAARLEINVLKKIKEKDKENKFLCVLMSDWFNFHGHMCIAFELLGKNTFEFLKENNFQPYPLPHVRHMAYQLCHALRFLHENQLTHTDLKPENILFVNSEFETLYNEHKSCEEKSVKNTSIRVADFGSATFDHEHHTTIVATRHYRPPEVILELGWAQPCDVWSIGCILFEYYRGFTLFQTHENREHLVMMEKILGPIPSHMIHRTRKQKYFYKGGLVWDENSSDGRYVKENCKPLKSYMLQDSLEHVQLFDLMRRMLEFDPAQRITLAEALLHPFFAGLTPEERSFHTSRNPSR

With `N#C/C(=C\c1cccnc1)c1c[nH]c2ncccc12`, the half-maximal inhibitory concentration (IC50) – broadly, the concentration needed to halve the response being measured – was greater than 10 µM in data set [1]; 0.13 µM in [2]; 0.72 µM in [3]; 0.021 µM in data set [4]; 0.016 µM in data set [5]; 0.24 µM in [6]. Further, the values for the concentration for half-maximal inhibition (IC50) in data set [7], in [8] and in [9] were 4.6 µM, greater than 10 µM and 0.047 µM, respectively. Further, the inhibition at 72 h, 1 µM in [10] is 29%.

Consider `N#Cc1cc2cnccc2c2[nH]c3ccc(F)cc3c12`, for which the half-maximal inhibitory concentration (IC50) was greater than 10 µM in data set [1]; greater than 10 µM in data set [2]; greater than 10 µM in [3]; 0.31 µM in data set [4]; 0.23 µM in data set [5]; 0.3 µM in [6]. Moreover, the concentration for half-maximal inhibition (IC50) in [7] was 0.61 µM; in data set [8], greater than 10 µM; in [9], 0.2 µM. In data set [10], the “growth inhibition (GI)” value is recorded as “Non-Toxic”.

As for `COc1ccc2c(-c3ccncc3)c[nH]c2n1`, the IC50 in [1] was greater than 10 µM; in [2] it was 7 µM; in data set [3], greater than 10 µM; in [4], 5.8 µM; in data set [5], 0.43 µM; in data set [6], 0.22 µM. Also, the IC50 in data set [7] was 3.5 µM; in [8], 6.1 µM; in data set [9], 0.11 µM. In addition, in [10], the “growth inhibition (GI)” value was “Non-Toxic”.

`COc1ccc2[nH]c3c4ccncc4cc(C#N)c3c2c1`: the 50% inhibitory concentration (IC50) in [1] is greater than 10 µM; in data set [2], 0.8 µM; in data set [3], 1.7 µM; in [4] it was 0.37 µM; in data set [5] it was 0.051 µM; in data set [6], 0.22 µM. Moreover, the IC50 in data set [7] turned out to be 0.11 µM; in [8], 0.71 µM; in [9], 0.057 µM. Further, the “growth inhibition (GI)” value in data set [10] is “Non-Toxic”.

On to `COc1ccc2c(c1)[nH]c1c3ccncc3cc(C#N)c21`, for which the IC50 in [1] is greater than 10 µM; in [2], 0.44 µM; in data set [3], 0.68 µM; in [4], 0.025 µM; in [5], 0.023 µM; in [6], 0.034 µM. For the same compound, the half-maximal inhibitory concentration (IC50) in data set [7] was 0.08 µM; in [8] it was 0.19 µM; in data set [9] it was 0.033 µM. The inhibition at 72 h, 1 µM in data set [10] amounted to 64%.

Turning to `N#Cc1cc2ccncc2c2[nH]c3ccccc3c12`, the IC50 in data set [1] was greater than 10 µM; in [2], 6 µM; in [3], 2.4 µM; in data set [4], 0.37 µM; in data set [5] it was 0.17 µM; in data set [6], 0.26 µM. Also, the IC50 in [7] came out at 1.1 µM; in data set [8], 1.8 µM; in data set [9], 0.18 µM. Besides, in data set [10], the inhibition at 72 h, 1 µM was 3%.

With `N#Cc1cc2cnccc2c2[nH]c3ncccc3c12`, the IC50 in data set [1] was greater than 10 µM; in data set [2], 0.78 µM; in data set [3], 1.8 µM; in data set [4], 0.44 µM; in data set [5], 0.16 µM; in data set [6], 0.16 µM. Besides, the figures for the half-maximal inhibitory concentration (IC50) in data set [7], in [8] and in data set [9] were 0.4 µM, 6.8 µM and 0.13 µM, respectively. Also, in data set [10], the “growth inhibition (GI)” value is reported as “Non-Toxic”.

`COc1cccc2[nH]c3c4ccncc4cc(C#N)c3c12`: the half-inhibitory concentration (IC50) is greater than 10 µM in data set [1]; greater than 10 µM in [2]; greater than 10 µM in data set [3]; 0.85 µM in [4]; 0.62 µM in data set [5]; greater than 10 µM in data set [6]. Besides, the IC50 is 4 µM in [7], greater than 10 µM in data set [8] and 0.1 µM in [9]. In addition, the inhibition at 72 h, 1 µM in data set [10] was determined as 13%.

For the compound `COc1ccc2c(/C(C#N)=C/c3cccnc3)c[nH]c2n1`, the 50% inhibitory concentration (IC50) in [1] was greater than 10 µM; in data set [2], greater than 10 µM; in [3], greater than 10 µM; in data set [4], 0.18 µM; in data set [5], 0.23 µM; in [6] it was 0.1 µM. In addition, the IC50 in [7] was 2.3 µM; in data set [8] it was greater than 10 µM; in [9] it was 0.071 µM. Moreover, the “growth inhibition (GI)” value in [10] was “Non-Toxic”.

`COc1cccc2c1[nH]c1c3ccncc3cc(C(N)=O)c21`: the IC50 in [1] was greater than 10 µM; in [2], 9 µM; in data set [3], 8.8 µM; in [4] it was 0.6 µM; in data set [5], 0.57 µM; in data set [6] it was 0.46 µM. Moreover, the half-maximal inhibitory concentration (IC50) in data set [7] is 3.5 µM; in data set [8], 6.1 µM; in data set [9], 0.11 µM. Moreover, in [10], the “growth inhibition (GI)” value is “Non-Toxic”.

Consider `COc1ccc2c(c1)[nH]c1c3c(OC)cncc3cc(C#N)c21`, for which the concentration for half-maximal inhibition (IC50) is greater than 10 µM in [1]; 6.4 µM in [2]; 0.14 µM in data set [3]; 0.018 µM in data set [4]; 0.023 µM in data set [5]; 0.042 µM in data set [6]. In addition, the concentration for half-maximal inhibition (IC50) in data set [7] amounted to 0.15 µM; in data set [8], 0.32 µM; in data set [9] it was 0.03 µM. The inhibition at 72 h, 1 µM in [10] is 38%.

Turning to `COc1ccc2c(n1)[nH]c1c3ccncc3cc(C#N)c21`, the IC50 was greater than 10 µM in [1]; greater than 10 µM in data set [2]; greater than 10 µM in data set [3]; 0.2 µM in data set [4]; 0.086 µM in data set [5]; 0.093 µM in [6]. In addition, the concentration for half-maximal inhibition (IC50) is 4.6 µM in data set [7], greater than 10 µM in data set [8] and 0.047 µM in data set [9]. In addition, the “growth inhibition (GI)” value in data set [10] is “Non-Toxic”.

With `COc1cccc2c1[nH]c1c3ccncc3cc(C#N)c21`, the IC50 in data set [1] was greater than 10 µM; in data set [2], 0.46 µM; in data set [3], 2 µM; in [4], 0.027 µM; in data set [5], 0.041 µM; in data set [6], 0.028 µM. Besides, the half-inhibitory concentration (IC50) in data set [7] turned out to be 0.044 µM; in data set [8], 0.18 µM; in data set [9], 0.04 µM. Moreover, in data set [10], the inhibition at 72 h, 1 µM was found to be 9%.
